Assay results published in PubChem BioAssay AID493108 (The Scripps Research Institute Molecular Screening Center, 2011).
The source made the active and inactive calls. The rule behind the calls is not given here.

Experiments:
Test in all cases: LYPLA1 and LYPLA2 inhibition in cells, late-stage follow-up, cell-based, gel-based ABPP, fluorescence (AID 493108)
Conditions in all cases: competitive ABPP fluorescence gel, serine hydrolase inhibition, at 0.03 µM, hits give high values
[1] = tested on: LYPLA2
[2] = tested on: ABHD11
[3] = tested on: LYPLA1

Row | SMILES | inhibition [1] | inhibition [2] [%] | inhibition [3]
1 | CC(C)(C)C1CCN(C(=O)n2ncc(C(O)(c3ccccc3)c3ccccc3)n2)CC1 | 100% | 100 | 100%
2 | CCC1CCCCN1C(=O)n1ncc(C(O)(c2ccccc2)c2ccccc2)n1 (centres undefined) | 0% (inactive) | 100 | 0% (inactive)
3 | CC(C)(O)c1cnn(C(=O)N2CCC(C(C)(C)C)CC2)n1 | 100% | 100 | 100%
